pKd: −log10 of the molar value.
Key:
DYRK1A [1] = biological target: T1, DYRK1A (Homo sapiens, UniProt Q13627); assay: HiBiT split luciferase assay of targeted degradation of DYRK1A in Flp-In T-REx 293 cells; format: cell-based; details: 300 nM compound, 24 h, HiBiT-tagged DYRK1A in Flp-In T-REx 293 cells, normalized to vehicle; read-out: Relative Degradation at 300 nM DYRK1A
T1 construct: purchased Eurofins; host or cells: E. coli BL21-derived (T7 phage display) or HEK-293

DYRK1B [2] = biological target: T2, DYRK1B (Homo sapiens, UniProt Q9Y463); assay: HiBiT split luciferase assay of targeted degradation of DYRK1B in Flp-In T-REx 293 cells; format: cell-based; details: 300 nM compound, 24 h, HiBiT-tagged DYRK1B in Flp-In T-REx 293 cells, normalized to vehicle; read-out: Relative Degradation at 300 nM DYRK1B
T2 construct: purchased Eurofins; host or cells: E. coli BL21-derived (T7 phage display) or HEK-293
Text: The Flp-In T-REx 293 Cell Line and the pcDNA5/FRT/TO vector (Invitrogen) were used to generate stable cell clones for tetracyclin-inducible expression of DYRK1A and DYRK1B. These cells contain a single stably integrated Flp recognition target (FRT) site, which allows for site-specific integration of the expression cassette by the Flp (Flippase) recombinase. DYRK1 constructs were designed to contain a C-terminal HiBiT tag for quantitative detection of HiBiT-tagged proteins in cellular lysates with the help a split luciferase assay (Nano-Glo HiBiT Lytic Detection System, Promega). To monitor the targeted degradation of DYRK1A or DYRK1B, cells were seeded in 96-well plates (10,000 cells/per well) and treated with doxycyclineinal concentration 2 μg/ml) to induce DYRK1 expression. Compounds with presumed PROTAC activity were administered 24 h after seeding. After further incubation for 24 h, cells were grossly and microscopically inspected for overt toxicity. Cells were lysed in 100 μL ice-cold passive lysis buffer (PLB, Promega) by orbital shaking (30 min on ice) before lysates were centrifuged in PCR tube (20 min 20,000 g, RT). A 10 μl aliquot of the supernatant was subjected to the HiBiT lytic assay. Luminescence was quantified in an Orion Microplate luminometer (Berthold Detection System, Germany). All compounds were tested in duplicate or triplicate wells (technical replicates) and at least two independent experiments. Relative degradation was calculated by normalization to vehicle-treated control samples.

DYRK1A [3] = biological target: T1, DYRK1A; assay: KdELECT kinase binding assay (Eurofins), DYRK1A; details: 11-point 3-fold dilution series, qPCR readout; read-out: Binding Affinity (Kd) DYRK1A
DYRK1B [4] = biological target: T2, DYRK1B; assay: KdELECT kinase binding assay (Eurofins), DYRK1B; details: 11-point 3-fold dilution series, qPCR readout; read-out: Binding Affinity (Kd) DYRK1B

T2 sequence (Q9Y463 whole entry, species assumed): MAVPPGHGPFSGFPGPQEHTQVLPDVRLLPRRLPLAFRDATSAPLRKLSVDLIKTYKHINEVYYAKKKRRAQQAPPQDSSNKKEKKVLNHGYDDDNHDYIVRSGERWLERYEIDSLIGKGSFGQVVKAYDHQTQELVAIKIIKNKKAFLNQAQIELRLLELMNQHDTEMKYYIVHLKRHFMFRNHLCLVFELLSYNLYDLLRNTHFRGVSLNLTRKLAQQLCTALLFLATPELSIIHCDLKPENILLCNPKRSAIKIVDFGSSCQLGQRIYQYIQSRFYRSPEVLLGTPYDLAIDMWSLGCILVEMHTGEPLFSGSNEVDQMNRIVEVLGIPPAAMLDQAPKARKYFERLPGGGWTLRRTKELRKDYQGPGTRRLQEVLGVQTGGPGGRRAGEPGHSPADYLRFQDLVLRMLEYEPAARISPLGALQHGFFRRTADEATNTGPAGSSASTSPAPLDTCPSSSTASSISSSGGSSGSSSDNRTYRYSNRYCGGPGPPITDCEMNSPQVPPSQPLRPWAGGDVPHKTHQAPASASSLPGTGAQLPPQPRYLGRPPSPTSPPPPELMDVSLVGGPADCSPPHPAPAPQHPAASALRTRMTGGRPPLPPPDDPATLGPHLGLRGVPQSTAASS

Row | inhibition at 0.3 µM (DYRK1A [1]) [%] | inhibition at 0.3 µM (DYRK1B [2]) [%] | pKd (DYRK1A [3]) | pKd (DYRK1B [4]) | Compound
1 | 30 to 60 | < 30 | > 8.00 | > 8.00 | Cc1nc2ccc(-c3ccnc(N)c3)nc2n1-c1ccc(N2CCN(CCOCCOCCOCCNc3cccc4c3C(=O)N(C3CCC(=O)NC3=O)C4=O)CC2)c(F)c1 (stereo not shown) [Compound 6, 4-((2-(2-(2-(2-(4-(4-(5-(2-aminopyridin-4-yl)-2-methyl-3H-imidazo[4,5-b]pyridin-3-yl)-2-fluorophenyl)piperazin-1-yl)ethoxy)ethoxy)ethoxy)ethyl)amino)-2-(2,6-dioxopiperidin-3-yl)isoindoline-1,3-dione]
2 | 30 to 60 | < 30 | > 8.00 | > 8.00 | Cc1nc2ccc(-c3ccnc(N)c3)nc2n1-c1ccc(N2CCN(CCOCCOCCNc3cccc4c3C(=O)N(C3CCC(=O)NC3=O)C4=O)CC2)c(F)c1 (stereo not shown) [Compound 5, 4-((2-(2-(2-(4-(4-(5-(2-aminopyridin-4-yl)-2-methyl-3H-imidazo[4,5-b]pyridin-3-yl)-2-fluorophenyl)piperazin-1-yl)ethoxy)ethoxy)ethyl)amino)-2-(2,6-dioxopiperidin-3-yl)isoindoline-1,3-dione]
3 | > 60 | > 50 | 7.00 to 8.00 | 7.00 to 8.00 | Cc1nc2ccc(-c3ccnc(N)c3)nc2n1-c1ccc(N2CCN(CCC#Cc3ccc(N4CCC(C(=O)N5CCC(n6cc(CNc7cccc8c7C(=O)N(C7CCC(=O)NC7=O)C8=O)cn6)CC5)CC4)nc3)CC2)c(F)c1 (stereo not shown) [Compound 19, 4-(((1-(1-(1-(5-(4-(4-(4-(5-(2-aminopyridin-4-yl)-2-methyl-3H-imidazo[4,5-b]pyridin-3-yl)-2-fluorophenyl)piperazin-1-yl)but-1-yn-1-yl)pyridin-2-yl)piperidine-4-carbonyl)piperidin-4-yl)-1H-pyrazol-4-yl)methyl)amino)-2-(2,6-dioxopiperidin-3-yl)isoindoline-1,3-dione]
4 | > 60 | > 50 | > 8.00 | > 8.00 | Cc1nc2ccc(-c3ccnc(N)c3)nc2n1-c1cc(F)c(N2CCN(CC#Cc3ccc(N4CCC(C(=O)N5CCC(n6cc(CNc7cccc8c7C(=O)N(C7CCC(=O)NC7=O)C8=O)cn6)CC5)CC4)nc3)CC2)c(F)c1 (stereo not shown) [Compound 23, 4-(((1-(1-(1-(5-(3-(4-(4-(5-(2-aminopyridin-4-yl)-2-methyl-3H-imidazo[4,5-b]pyridin-3-yl)-2,6-difluorophenyl)piperazin-1-yl)prop-1-yn-1-yl)pyridin-2-yl)piperidine-4-carbonyl)piperidin-4-yl)-1H-pyrazol-4-yl)methyl)amino)-2-(2,6-dioxopiperidin-3-yl)isoindoline-1,3-dione]

Source: patent publication US20260183407A1, “DYRK/CLK PROTACS AND USES THEREOF” (Arizona Board of Regents on Behalf of the University of …, priority 2022, published 2026)
